Measurements taken from US6667312B2, “Thioether substituted imidazoquinolines” (3M Innovative Properties Company, priority 2000, dated 2003).
Structures can show the parent of a compound that is named as a salt. Each block holds one compound with its values, some of them ahead of it.

What was measured:
[1] = tested on: interferon (α); experiment: Cytokine Induction in Human Cells: interferon; type: cell-based; details: human PBMC, 18 to 24 hours, tested 30-0.014 μM, interferon (α) by ELISA; read-out: Lowest Effective Concentration (μM) Interferon
Description: (§1) An in vitro human blood cell system is used to assess cytokine induction. Activity is based on the measurement of interferon and tumor necrosis factor (α) (IFN and TNF, respectively) secreted into culture media as described by Testerman et. al. In “Cytokine Induction by the Immunomodulators Imiquimod and S-27609”, Journal of Leukocyte Biology, 58, 365-372 (September, 1995).
(§2) Whole blood from healthy human donors is collected by venipuncture into EDTA vacutainer tubes. Peripheral blood mononuclear cells (PBMC) are separated from whole blood by density gradient centrifugation using Histopaque®-1077. Blood is diluted 1:1 with Dulbecco's Phosphate Buffered Saline (DPBS) or Hank's Balanced Salts Solution (HBSS). The PBMC layer is collected and washed twice with DPBS or HBSS and resuspended at 4×10^6 cells/mL in RPMI complete. The PBMC suspension is added to 48 well flat bottom sterile tissue culture plates (Costar, Cambridge, Mass. or Becton Dickinson Labware, Lincoln Park, N.J.) containing an equal volume of RPMI complete media containing test compound.
(§3) The compounds are solubilized in dimethyl sulfoxide (DMSO). The DMSO concentration should not exceed a final concentration of 1% for addition to the culture wells. The compounds are generally tested at concentrations ranging from 30-0.014 μM.
(§4) The solution of test compound is added at 60 μM to the first well containing RPMI complete and serial 3 fold dilutions are made in the wells. The PBMC suspension is then added to the wells in an equal volume, bringing the test compound concentrations to the desired range (30-0.014 μM). The final concentration of PBMC suspension is 2×10^6 cells/mL. The plates are covered with sterile plastic lids, mixed gently and then incubated for 18 to 24 hours at 37° C. in a 5% carbon dioxide atmosphere.
(§5) Following incubation the plates are centrifuged for 10 minutes at 1000 rpm (˜200× g) at 4° C. The cell-free culture supernatant is removed with a sterile polypropylene pipet and transferred to sterile polypropylene tubes. Samples are maintained at −30 to −70° C. until analysis. The samples are analyzed for interferon (α) by ELISA and for tumor necrosis factor (α) by ELISA or IGEN Assay
Interferon (α) concentration is determined by ELISA using a Human Multi-Species kit from PBL Biomedical Laboratories, New Brunswick, N.J. Results are expressed in pg/mL.
(§6) The table below lists the lowest concentration found to induce interferon and the lowest concentration found to induce tumor necrosis factor for each compound.

[2] = tested on: tumor necrosis factor (α); experiment: Cytokine Induction in Human Cells: tumor necrosis factor; type: cell-based; details: human PBMC, 18 to 24 hours, tested 30-0.014 μM, TNF by ELISA or IGEN assay; read-out: Lowest Effective Concentration (μM) Tumor Necrosis Factor
Description: as §1, §2, §3, §4, §5
Tumor necrosis factor (α) (TNF) concentration is determined using ELISA kits available from Biosource International, Camarillo, Calif. Alternately, the TNF concentration can be determined by Origen® M-Series Immunoassay and read on an IGEN M-8 analyzer from IGEN International, Gaithersburg, Md. The immunoassay uses a human TNF capture and detection antibody pair from Biosource International, Camarillo, Calif. Results are expressed in pg/mL.
as §6

- melting point: 237 to 238 °C
SMILES: CCCCc1nc2c(N)nc3c(c2n1CCSc1ccccc1)CCCC3 (as salt: hydrochloride) [Example 2, 2-butyl-1-[2-(phenylthio)ethyl]-6,7,8,9-tetrahydro-1H-imidazo[4,5-c]quinolin-4-amine Hydrochloride]

SMILES: CCCc1nc2c(N)nc3ccccc3c2n1CCCCS(C)(=O)=O [Example 30, 1-[4-(methylsulfonyl)butyl]-2-propyl-1H-imidazo[4,5-c]quinolin-4-amine]
- minimal effective concentration [1]: 0.37 µM
- minimal effective concentration [2]: 3.33 µM

- melting point: 159 to 162 °C
SMILES: Cc1nc2c(N)nc3c(c2n1CCCCS(=O)(=O)c1ccc(F)cc1)CCCC3 [Example 77, 2-methyl-1-{4-[(4-fluorophenyl)sulfonyl]butyl}-6,7,8,9-tetrahydro-1H-imidazo[4,5-c]quinolin-4-amine]

SMILES: CCCCc1nc2c(N)nc3ccccc3c2n1CCSCC(C)C [Example 63]
- minimal effective concentration [1]: 0.04 µM
- minimal effective concentration [2]: 0.04 µM

SMILES: CCCCc1nc2c(N)nc3ccccc3c2n1CCCCS(=O)(=O)CC [Example 39]
- minimal effective concentration [1]: 0.04 µM
- minimal effective concentration [2]: 0.04 µM

SMILES: CCCCc1nc2c(N)nc3ccccc3c2n1CCCCCS(C)(=O)=O [Example 11, 2-butyl-1-[5-(methylsulfonyl)pentyl]-1H-imidazo[4,5-c]quinolin-4-amine]
- minimal effective concentration [1]: 0.01 µM
- minimal effective concentration [2]: 0.12 µM

SMILES: CCCCc1nc2c(N)nc3ccccc3c2n1CCS(=O)(=O)CCC [Example 62]
- minimal effective concentration [1]: 0.12 µM
- minimal effective concentration [2]: 0.37 µM

SMILES: CCCCc1nc2c(N)nc3ccccc3c2n1CCSC(C)(C)C [Example 59]
- minimal effective concentration [1]: 0.01 µM
- minimal effective concentration [2]: 0.04 µM

SMILES: CCCCc1nc2c(N)nc3ccccc3c2n1CCS(=O)(=O)C(C)(C)C [Example 60]
- minimal effective concentration [1]: 0.37 µM
- minimal effective concentration [2]: 0.37 µM

SMILES: CCCCc1nc2c(N)nc3ccccc3c2n1CCSCCC [Example 61]
- minimal effective concentration [1]: 0.04 µM
- minimal effective concentration [2]: 0.12 µM

SMILES: CCc1nc2c(N)nc3ccccc3c2n1CCCCSc1cc(Cl)cc(Cl)c1 [Example 44]
- minimal effective concentration [1]: 1.11 µM
- minimal effective concentration [2]: 10 µM

SMILES: CCCCc1nc2c(N)nc3ccccc3c2n1CCCCS(=O)(=O)c1ccc(F)cc1 [Example 42]
- minimal effective concentration [1]: 0.12 µM
- minimal effective concentration [2]: 0.12 µM

SMILES: CCc1nc2c(N)nc3ccccc3c2n1CCCCSc1ccc(F)cc1 [Example 51]
- minimal effective concentration [1]: 0.12 µM
- minimal effective concentration [2]: 1.11 µM

SMILES: CCCCS(=O)(=O)CCCCn1c(CC)nc2c(N)nc3ccccc3c21 [Example 50]
- minimal effective concentration [1]: 0.37 µM
- minimal effective concentration [2]: 1.11 µM

SMILES: CCCCc1nc2c(N)nc3ccccc3c2n1CCS(=O)(=O)CC(C)C [Example 64]
- minimal effective concentration [1]: 0.12 µM
- minimal effective concentration [2]: 0.12 µM

SMILES: CCc1nc2c(N)nc3ccccc3c2n1CCCCSC(C)C [Example 43]
- minimal effective concentration [1]: 0.014 µM
- minimal effective concentration [2]: 0.37 µM

SMILES: CCCCc1nc2c(N)nc3ccccc3c2n1CCS(=O)(=O)CC [Example 66]
- minimal effective concentration [1]: 0.12 µM
- minimal effective concentration [2]: 0.12 µM

- melting point: 177 to 178 °C
SMILES: Cc1nc2c(N)nc3c(c2n1CCCCS(=O)(=O)C(C)C)CCCC3 [Example 76, 2-methyl-1-{4-[(1-methylethyl)sulfonyl]butyl}-6,7,8,9-tetrahydro-1H-imidazo[4,5-c]quinolin-4-amine]

SMILES: CCc1nc2c(N)nc3ccccc3c2n1CCCCS(=O)(=O)c1cc(Cl)cc(Cl)c1 [Example 46]
- minimal effective concentration [1]: 0.12 µM
- minimal effective concentration [2]: 0.37 µM

SMILES: CCc1nc2c(N)nc3ccccc3c2n1CCCCCS(C)(=O)=O [Example 13, 2-ethyl-1-[5-(methylsulfonyl)pentyl]-1H-imidazo[4,5-c]quinolin-4-amine]
- minimal effective concentration [1]: 0.12 µM
- minimal effective concentration [2]: 3.33 µM

SMILES: CCc1nc2c(N)nc3ccccc3c2n1CCCCS(=O)(=O)CC [Example 54]
- minimal effective concentration [1]: 0.37 µM
- minimal effective concentration [2]: 1.11 µM

SMILES: CCCCc1nc2c(N)nc3ccccc3c2n1CCCCSc1ccc(F)cc1 [Example 41]
- minimal effective concentration [1]: 0.37 µM
- minimal effective concentration [2]: 0.37 µM

- melting point: 208 to 210 °C
SMILES: Cc1nc2c(N)nc3c(c2n1CCCCS(=O)(=O)C(C)(C)C)CCCC3 [Example 78, 2-methyl-1-{4-[(1,1-dimethylethyl)sulfonyl]butyl}-6,7,8,9-tetrahydro-1H-imidazo[4,5-c]quinolin-4-amine]

SMILES: CCCCc1nc2c(N)nc3ccccc3c2n1CCCCSC(C)(C)C [Example 40]
- minimal effective concentration [1]: 0.01 µM
- minimal effective concentration [2]: 0.01 µM

SMILES: CCCCc1nc2c(N)nc3ccccc3c2n1CCS(=O)(=O)c1ccccc1 [Example 57]
- minimal effective concentration [1]: 1.11 µM
- minimal effective concentration [2]: 1.11 µM

SMILES: CCc1nc2c(N)nc3ccccc3c2n1CCCCS(=O)(=O)C1CCCCC1 [Example 55]
- minimal effective concentration [1]: 0.12 µM
- minimal effective concentration [2]: 1.11 µM

- melting point: 182 to 185 °C
SMILES: CCc1nc2c(N)nc3ccccc3c2n1CCCCSc1ncccn1 [Example 72, 2-ethyl-1-[4-(pyrimidin-2-ylthio)butyl]-1H-imidazo[4,5-c]quinolin-4-amine]

- melting point: 172 to 174 °C
SMILES: Cc1nc2c(N)nc3c(c2n1CCCCCS(C)(=O)=O)CCCC3 [Example 75, 2-methyl-1-[5-(methylsulfonyl)pentyl]-6,7,8,9-tetrahydro-1H-imidazo[4,5-c]quinolin-4-amine]

SMILES: CCSCCCCn1c(CC)nc2c(N)nc3ccccc3c21 [Example 53]
- minimal effective concentration [1]: 0.04 µM
- minimal effective concentration [2]: 0.37 µM

SMILES: CCCCc1nc2c(N)nc3ccccc3c2n1CCS(=O)(=O)c1ccc(F)cc1 [Example 58]
- minimal effective concentration [1]: 1.11 µM
- minimal effective concentration [2]: 1.11 µM

SMILES: CCc1nc2c(N)nc3ccccc3c2n1CCCCSC1CCCCC1 [Example 47]
- minimal effective concentration [1]: 0.37 µM
- minimal effective concentration [2]: 3.33 µM

SMILES: CCc1nc2c(N)nc3ccccc3c2n1CCCCS(=O)(=O)C(C)C [Example 52]
- minimal effective concentration [1]: 0.37 µM
- minimal effective concentration [2]: 1.11 µM

SMILES: CCc1nc2c(N)nc3ccccc3c2n1CCCCSc1ccc(Cl)cc1 [Example 49]
- minimal effective concentration [1]: 0.37 µM
- minimal effective concentration [2]: 1.11 µM

SMILES: CCCCc1nc2c(N)nc3ccccc3c2n1CCS(=O)(=O)C(C)C [Example 56]
- minimal effective concentration [1]: 0.37 µM
- minimal effective concentration [2]: 0.37 µM

SMILES: CCCCSCCCCn1c(CC)nc2c(N)nc3ccccc3c21 [Example 48]
- minimal effective concentration [1]: 0.014 µM
- minimal effective concentration [2]: 0.12 µM

SMILES: CCc1nc2c(N)nc3ccccc3c2n1CCCCS(=O)(=O)C1CCCC1 [Example 45]
- minimal effective concentration [1]: 0.37 µM
- minimal effective concentration [2]: 1.11 µM

SMILES: CCCCc1nc2c(N)nc3ccccc3c2n1CCSCC [Example 65]
- minimal effective concentration [1]: 0.01 µM
- minimal effective concentration [2]: 0.04 µM

SMILES: CCCCc1nc2c(N)nc3c(c2n1CCSc1ccccc1)CCCC3 [Example 2, 2-butyl-1-[2-(phenylthio)ethyl]-6,7,8,9-tetrahydro-1H-imidazo[4,5-c]quinolin-4-amine Hydrochloride]
- minimal effective concentration [1]: 0.12 µM
- minimal effective concentration [2]: 0.37 µM
